Source: patent publication US6849709B2, “Aerothricin derivatives” (Basilea Pharmaceutica AG, priority 2000, dated 2005)
*1 amine or outer side, *2 acyl side, *3 side chain or, on linkers, in order; H or OH if unused. Where a SMILES comes first, the peptide text is derived from it. Bridges are numbered along the chain shown (N, C = ends). Side-chain parts run from the residue outwards. [ ]: non-standard residue; d: D form. The star is where a group is joined. ξ: configuration not given here. pTerphenylCO(4''-OnC5H11) = CCCCCOc1ccc(-c2ccc(-c3ccc(C(=O)*)cc3)cc2)cc1; Orn(4R-OH,5R-OH) = O=C([C@H](C[C@@H](O)[C@@H](O)N[*:3])N[*:1])[*:2]; hTyr(3S-OH,4S-OH) = N[C@H](C(=O)O)[C@H](O)[C@@H](O)c1ccc(O)cc1; Orn(Nα,Nα-(2-aminoethyl)2) = NCCC[C@@H](C(=O)*)N(CCN)CCN; X2 = NCCC[C@H](N)C(=O)N(CCCN)CCC[C@H](N[*:1])C(=O)[*:2]; NαBis(2-aminoethyl)dOrn = NCCC[C@H](C(=O)*)N(CCN)CCN; Pro(3S-OH,4S-Me) = C[C@H]1CN[C@H](C(=O)O)[C@H]1O; X7 = CCCCCCCCCCCCC(C)[C@H](CC(=O)[*:1])O[*:2]; X4 = NCCCN(CCC[C@H](N[*:1])C(=O)[*:2])[*:3]; X3 = CCCCCCCCCCCCC[C@H](CC(=O)[*:1])O[*:2]; X6 = NCCN(CCC[C@H](N[*:1])C(=O)[*:2])[*:3]; ξGln(3R-OH) = NC(=O)C[C@@H](O)C(N)C(=O)O; Dopa = N[C@@H](Cc1ccc(O)c(O)c1)C(=O)O; Pro(3S-OH) = O=C(O)[C@H]1NCC[C@@H]1O; X1 = NC(=O)CC(O)C(N[*:1])C(=O)[*:2]; d(aThr) = C[C@@H](O)[C@@H](N)C(=O)O; Hyp = O=C(O)[C@@H]1C[C@@H](O)CN1; X5 = NCCCN[C@@H](CCCN)C(=O)*; dOrn = NCCC[C@@H](N)C(=O)O; Orn = NCCC[C@H](N)C(=O)O

Key:
[1] = test system: Candida albicans CY1002; assay: In vitro antifungal activity, broth micro-dilution IC80; format: cell-based; conditions: YNB medium, 1-2 days at 35° C.
Experimental: (§1) The in vitro antifungal activities of the representative Aerothricins of the present study were evaluated by determining the 80% inhibitory concentration (IC80), which was calculated as the lowest concentration of an antifungal to inhibit the growth of fungus to 20% turbidity compared with the drug-free control growth spectrophotometrically.
(§2) The IC80 values were determined by the broth micro-dilution procedure based on NCCLS Approved Standard with the following minor modifications (National Committee for Clinical Laboratory Standards. (1997) Reference method for broth dilution antifungal susceptibility testing for yeasts. Approved standard. Document M27-A). Yeast Nitrogen Base (YNB; Difco Lab.) supplemented with 1% glucose and 0.25% K2HPO4 was used as testing medium for yeasts, the same medium solidified with 0.2% low melting point agarose (BRL) was used for filamentous fungi. Inoculum size was 1-3×10^3 cells/ml, and incubation was performed for 1-2 days at 35° C.

[2] = test system: Scedosporium apiospermum CF1077; assay: as above; format: cell-based; conditions: YNB medium with 0.2% agarose, 1-2 days at 35° C.
Experimental: as §1, §2

[3] = test system: Aspegillus fumigatus CF1003; assay: as above; format: cell-based, Aspergillus fumigatus; conditions: YNB medium with 0.2% agarose, 1-2 days at 35° C.
Experimental: as §1, §2

[4] = test system: Candida albicans; assay: Murine systemic candidiasis, survival; format: in vivo, mouse; conditions: Crj: CD-1 (ICR) mice; i.v. once just after infection; survival on day 7
Experimental: Mice of a conventional immunocompetent mouse strain, Crj: CD- 1 (ICR) were used for experimental infection models of systemic candidiasis. 4 weeks old Crj: CD-1 (ICR) mice were used for systemic candidiasis by injecting Candida albicans 5×10^6 conidia/mouse via the tail vein. Test compounds were intravenously (i.v.) given once just after infection for systemic candidiasis. 50% of effective dose (ED50) values were calculated from the survival number at each dose on day 7.

[5] = test system: A. fumigatus; assay: Murine pulmonary aspergillosis, survival; format: in vivo, mouse; conditions: cortisone-treated ICR male mice; once daily for 4 days; survival on day 14
Experimental: Murine pulmonary aspergillosis was created in cortisone-treated (250 mg/kg, twice sub-cutaneous treatments on 3 days before and on the infection day) ICR male mouse. Conidia of A. fumigatus (2.5×10^5 conidia/mouse) were infected intratracheally to these mice, and treatments were carried out once daily for 4 days. The efficacy of each drug was determined from the survival number, and 50% of effective dose (ED50) was calculated from the survival number at each dose on the 14 days.

[6] = test system: mouse hepatocytes; assay: In vitro hepatotoxicity test; format: cell-based; conditions: mouse hepatocyte monolayers, exposed 1 day, morphological evaluation
Source text: The mouse hepatocytes were isolated by a collagenase digestion and cultured in microtest plates. The hepatocyte monolayers were exposed to the test Aerothricins in the culture system for 1 day. After the culture period, the hepatocytes were observed under a microscope and evaluated morphologically. The degree of the morphological alteration (degeneration) of the hepatocytes by the test Aerothricins were compared with WF11243 and LY303366.

[7] = Toxicity on repeated i.v. administration to mice; format: in vivo; conditions: 5 mg/kg and 30 mg/kg once daily i.v. for 2 weeks
[8] = Solubility; conditions: solvents in which soluble

CCCCCCCCCCCCC[C@@H]1CC(=O)N[C@H]([C@@H](C)O)C(=O)N[C@H](C)C(=O)N[C@@H](Cc2ccc(O)cc2)C(=O)N[C@@H](C(C)C)C(=O)N2C[C@H](O)C[C@H]2C(=O)N[C@H]([C@@H](C)O)C(=O)N[C@@H]([C@@H](C)O)C(=O)N2CC[C@H](O)[C@H]2C(=O)NC(C(O)CC(N)=O)C(=O)NCC(=O)N[C@H]([C@@H](C)O)C(=O)N[C@@H](CCCN(CCCN)C(=O)[C@H](CCCN)NCCCN)C(=O)O1 (stereo partly drawn) [Aerothricin 136] ([d(aThr)][dA]YV[Hyp][d(aThr)]T[Pro(3S-OH)][X1]G[d(aThr)][X4](X5); linker N-C via X3)
In vitro Antifungal activity, IC80 [1]: 0.33 µg/mL
In vitro Antifungal activity, IC80 [2]: 0.34 µg/mL
In vitro Antifungal activity, IC80 [3]: 0.38 µg/mL

CCCCCCCCCCCCC[C@@H]1CC(=O)N[C@H]([C@@H](C)O)C(=O)N[C@H](C)C(=O)N[C@@H](Cc2ccc(O)cc2)C(=O)N[C@@H](C(C)C)C(=O)N2C[C@H](O)C[C@H]2C(=O)N[C@H]([C@@H](C)O)C(=O)N[C@@H]([C@@H](C)O)C(=O)N2CC[C@H](O)[C@H]2C(=O)NC(C(O)CC(N)=O)C(=O)NCC(=O)N[C@H]([C@@H](C)O)C(=O)N[C@@H](CCCN(CCCN)C(=O)[C@@H](N)CCCN)C(=O)O1 (stereo partly drawn) [Aerothricin 132] ([d(aThr)][dA]YV[Hyp][d(aThr)]T[Pro(3S-OH)][X1]G[d(aThr)][X2]; linker N-C via X3)
In vitro Antifungal activity, IC80 [1]: 0.28 µg/mL
In vitro Antifungal activity, IC80 [2]: 0.38 µg/mL
In vitro Antifungal activity, IC80 [3]: 2.9 µg/mL
In vivo antifungal activity against systemic candidiasis in mice, ED50 on day 7 [4]: 0.43 mg/kg
In vivo antifungal activity against pulmonary aspergillosis in mice, ED50 on day 14 [5]: 5.2 mg/kg
Cytotoxicity to hepatocyte [6]: >100 µg/mL
acute toxicity [7]: no acute toxicity

CCCCCCCCCCCCC[C@@H]1CC(=O)N[C@H]([C@@H](C)O)C(=O)N[C@H](C)C(=O)N[C@@H](Cc2ccc(O)cc2)C(=O)N[C@@H](C(C)C)C(=O)N2C[C@H](O)C[C@H]2C(=O)N[C@H]([C@@H](C)O)C(=O)N[C@@H]([C@@H](C)O)C(=O)N2CC[C@H](O)[C@H]2C(=O)NC(C(O)CC(N)=O)C(=O)NCC(=O)N[C@H]([C@@H](C)O)C(=O)N[C@@H](CCCN(CCCN)C(=O)[C@H](CCCN)N(CCN)CCN)C(=O)O1 (stereo partly drawn) [Aerothricin 134] ([d(aThr)][dA]YV[Hyp][d(aThr)]T[Pro(3S-OH)][X1]G[d(aThr)][X4](Orn(Nα,Nα-(2-aminoethyl)2)); linker N-C via X3)
In vitro Antifungal activity, IC80 [1]: 0.37 µg/mL
In vitro Antifungal activity, IC80 [2]: 0.37 µg/mL
In vitro Antifungal activity, IC80 [3]: 0.58 µg/mL
In vivo antifungal activity against pulmonary aspergillosis in mice, ED50 on day 14 [5]: 5.8 mg/kg
Cytotoxicity to hepatocyte [6]: >100 µg/mL

CCCCCCCCCCCCC(C)[C@@H]1CC(=O)N[C@H]([C@@H](C)O)C(=O)N[C@H](C)C(=O)N[C@@H](Cc2ccc(O)cc2)C(=O)N[C@@H](C(C)C)C(=O)N2C[C@H](O)C[C@H]2C(=O)N[C@H]([C@@H](C)O)C(=O)N[C@@H]([C@@H](C)O)C(=O)N2CC[C@H](O)[C@H]2C(=O)NC(C(O)CC(N)=O)C(=O)NCC(=O)N[C@H]([C@@H](C)O)C(=O)N[C@@H](CCCN)C(=O)O1 (stereo partly drawn) [Aerothricin 1] ([d(aThr)][dA]YV[Hyp][d(aThr)]T[Pro(3S-OH)][X1]G[d(aThr)][Orn]; linker N-C via X7)
Solubility [8]: Soluble: water, methanol, dimethylsulfoxide

CCCCCOc1ccc(-c2ccc(-c3ccc(C(=O)N[C@H]4C[C@@H](O)[C@@H](O)NC(=O)[C@@H]5[C@@H](O)[C@@H](C)CN5C(=O)[C@H]([C@@H](C)O)NC(=O)[C@H]([C@H](O)[C@@H](O)c5ccc(O)cc5)NC(=O)[C@@H]5C[C@@H](O)CN5C(=O)[C@H]([C@@H](C)O)NC4=O)cc3)cc2)cc1 [LY303366, reference compound] ({pTerphenylCO(4''-OnC5H11)}-[Orn(4R-OH,5R-OH)]T[Hyp][hTyr(3S-OH,4S-OH)]T[Pro(3S-OH,4S-Me)]; lactam 1-C)
Cytotoxicity to hepatocyte [6]: 10 µg/mL

CCCCCCCCCCCCC[C@@H]1CC(=O)N[C@H]([C@@H](C)O)C(=O)N[C@H](C)C(=O)N[C@@H](Cc2ccc(O)c(O)c2)C(=O)N[C@@H](C(C)C)C(=O)N2C[C@H](O)C[C@H]2C(=O)N[C@H]([C@@H](C)O)C(=O)N[C@@H]([C@@H](C)O)C(=O)N2CC[C@H](O)[C@H]2C(=O)NC(C(O)CC(N)=O)C(=O)NCC(=O)N[C@H]([C@@H](C)O)C(=O)N[C@@H](CCCN)C(=O)O1 (stereo partly drawn) [Aerothricin 2] ([d(aThr)][dA][Dopa]V[Hyp][d(aThr)]T[Pro(3S-OH)][X1]G[d(aThr)][Orn]; linker N-C via X3)
Solubility [8]: Soluble: water, methanol, dimethylsulfoxide

CCCCCCCCCCCCC[C@@H]1CC(=O)N[C@H]([C@@H](C)O)C(=O)N[C@H](C)C(=O)N[C@@H](Cc2ccc(O)cc2)C(=O)N[C@@H](C(C)C)C(=O)N2C[C@H](O)C[C@H]2C(=O)N[C@H]([C@@H](C)O)C(=O)N[C@@H]([C@@H](C)O)C(=O)N2CC[C@H](O)[C@H]2C(=O)NC([C@H](O)CC(N)=O)C(=O)NCC(=O)N[C@H]([C@@H](C)O)C(=O)N[C@@H](CCCNC(=O)[C@@H](CCCN)NC(=O)[C@@H](N)CCCN)C(=O)O1 (stereo partly drawn) [Aerothricin 133] ([d(aThr)][dA]YV[Hyp][d(aThr)]T[Pro(3S-OH)][ξGln(3R-OH)]G[d(aThr)][Orn]([dOrn-Orn]); linker N-C via X3)
In vivo antifungal activity against systemic candidiasis in mice, ED50 on day 7 [4]: 0.35 mg/kg

CCCCCCCCCCCCC[C@@H]1CC(=O)N[C@H]([C@@H](C)O)C(=O)N[C@H](C)C(=O)N[C@@H](Cc2ccc(O)cc2)C(=O)N[C@@H](C(C)C)C(=O)N2C[C@H](O)C[C@H]2C(=O)N[C@H]([C@@H](C)O)C(=O)N[C@@H]([C@@H](C)O)C(=O)N2CC[C@H](O)[C@H]2C(=O)NC(C(O)CC(N)=O)C(=O)NCC(=O)N[C@H]([C@@H](C)O)C(=O)N[C@@H](CCCN(CCCN)C(=O)[C@@H](CCCN)N(CCN)CCN)C(=O)O1 (stereo partly drawn) [Aerothricin 135] ([d(aThr)][dA]YV[Hyp][d(aThr)]T[Pro(3S-OH)][X1]G[d(aThr)][X4](NαBis(2-aminoethyl)dOrn); linker N-C via X3)
In vitro Antifungal activity, IC80 [1]: 0.41 µg/mL
In vitro Antifungal activity, IC80 [2]: 0.35 µg/mL
In vitro Antifungal activity, IC80 [3]: 0.37 µg/mL
In vivo antifungal activity against systemic candidiasis in mice, ED50 on day 7 [4]: 0.35 mg/kg
Cytotoxicity to hepatocyte [6]: >100 µg/mL

CCCCCCCCCCCCC[C@@H]1CC(=O)N[C@H]([C@@H](C)O)C(=O)N[C@H](C)C(=O)N[C@@H](Cc2ccc(O)cc2)C(=O)N[C@@H](C(C)C)C(=O)N2C[C@H](O)C[C@H]2C(=O)N[C@H]([C@@H](C)O)C(=O)N[C@@H]([C@@H](C)O)C(=O)N2CC[C@H](O)[C@H]2C(=O)NC(C(O)CC(N)=O)C(=O)NCC(=O)N[C@H]([C@@H](C)O)C(=O)N[C@@H](CCCN(CCN)C(=O)[C@H](CCCN)N(CCN)CCN)C(=O)O1 (stereo partly drawn) [Aerothricin 137] ([d(aThr)][dA]YV[Hyp][d(aThr)]T[Pro(3S-OH)][X1]G[d(aThr)][X6](Orn(Nα,Nα-(2-aminoethyl)2)); linker N-C via X3)
In vivo antifungal activity against pulmonary aspergillosis in mice, ED50 on day 14 [5]: 5.2 mg/kg
